Like-named read-outs stand apart in the source and are kept apart here.
Columns and labels:
[1] = test system: P. falciparum female gametes; test: Pf FGAA with compounds added 30 min after triggering gametocyte activation (gamete-targeting); type: cell-based, Plasmodium falciparum NF54; conditions: 0h incubation time
[2] = test system: P. falciparum stages IV–V gametocytes; test: Gametocytocidal ATP-depletion assay (gametocyte ATP bioluminescence); type: cell-based, Plasmodium falciparum
Method in brief: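 Read-out is luciferase luminescence of parasite ATP (BacTiter-Glo), standing in for viability. Double-purified mature stage IV–V gametocytes, 12,500 per well, were exposed 48 h at 37 °C in low-O2 gas; screening concentration 2 μM.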

[3] = test system: P. falciparum asexual blood stages; conditions: cited from earlier work; for IC50: read-out: Pf Asexual blood stages XC50
[4] = test system: HepG2 cells; test: HepG2 cytotoxicity assay; type: cell-based; conditions: mean
Method in brief: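 Luminescent read-out (CellTiter-Glo) taken 10 min after reagent addition at RT; plates and reagent pre-equilibrated 30 min at RT.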

[5] = test system: Plasmodium berghei asexual blood stages; test: In vivo antimalarial therapeutic efficacy, P. berghei murine model; set-up: species or system CD1 mice
Experimental: Two out of the six compounds progressed to SMFA, TCMDC-123767 (cluster 30) and TCMDC-141154 (cluster 4), were evaluated in vivo in the Plasmodium berghei murine model. Selection criteria was based on the compound potencies in both asexual stages and gametocytes in the Pf FGAA, as well as on their transmission-blocking activity observed in the SMFA (Table 1). Owing to compound availability, TCMDC-141154 had to be replaced by a close analogue from cluster 4: TCMDC-140549 (Supplementary Data 3). Compounds were tested at 50 mg kg^−1 single dose 2-day oral treatment and efficacy was measured as a reduction of asexual blood stages parasitaemia greater than 40% compared with the vehicle-treated mice.
Pathogen-free CD1 mice (Hsd:ICR) were obtained from Harlan Interfauna Iberica (Barcelona, Spain). Eight weeks old female CD-1 mice were infected intravenously with 10^7 infected erythrocytes (day 0). Dosing solutions were prepared in water containing 5% DMSO/20% Captisol, at a target dose of 50 mg kg^−1. Mice received two oral doses once a day according to their body weight (20 ml kg^−1) starting at day 2 after infection. Control mice received the same treatment schedule with the vehicle used for the compound preparation. Samples from mice peripheral blood were taken before starting treatment and 24 h after finishing the dosing, to measure parasitaemia by flow cytometry, using the YOYO-1 staining, to assess the reduction of parasitaemia compared with the vehicle-treated mice.

[6] = Artificial membrane permeability assay (AMPA); type: in vitro ADME; conditions: 10 μM, pH 7.05, 3 h
Experimental: It is a 96-well plate-based assay that measures the speed of permeation of a compound (at 10 μM concentration) through a phospholipid membrane, consisting in 1.8% egg L-a-phosphatidylcholine (830051, Avanti Polar Lipids) and 1% cholesterol (C8667, Sigma) dissolved in n-decane (D0011, TCI American). Phosphate buffer (50 mM Na2HPO4 with 0.5% 2-hydroxypropyl-b-cyclodextrin), pH 7.05, is added to the top and bottom of the plate (S5EJ046I08, MilliPore Corp.). The lipids are allowed to form bilayers across the small holes in the filter and compound concentration is measured 3 h later in both donor and the acceptor compartments by HPLC (Agilent 1100 LC). Permeability (P) (nm s^−1) is calculated using the following formulas:
where X=VD/VR; CR and CD are final concentrations in receiver and donor side, respectively; VR and VD are volumes in receiver and donor compartment, respectively; A is the area (cm^2) and t is the incubation time (s). The considered cut-off values are as follows: High: P>200 nm s^−1; Medium: 10 nm s^−1<P<200 nm s^−1; Low: P<10 nm s^−1.

[7] = test system: P. falciparum stage V female gametocytes; test: P. falciparum female gametocyte activation assay (Pf FGAA), 24 h or 48 h preincubation, Pfs25 expression readout; type: cell-based, Plasmodium falciparum NF54; conditions: for Pf FGAA classification: SLOW / FAST / GAMETE from activity at 48h, 24h, 0h incubation
Method in brief: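 Female activation, triggered by xanthurenic acid and cooling, was scored by imaging Cy3-labelled anti-Pfs25 female gametes after 24 h at 26 °C. Beforehand, purified NF54 stage V gametocytes had been incubated with compound for either 24 h or 48 h (37 °C, 3% O2). Values are pIC50 from full-curve regression.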

[8] = TCAMS data, ref 1 (Gamo et al., 2010)
[9] = TCAMS data, ref 1 (Gamo, F. J. et al., Nature 465, 305-310, 2010)
[10] = 24h incubation time, read-out: Pf FGAA IC50 (µM) 24h
[11] = mean, read-out: Gametocytes mean Pf FGAA IC50
[12] = TCAMS asexual blood stage data, ref 1 (Gamo, F. J. et al., Nature 465, 305-310, 2010)
[13] = mean, P. falciparum female gametocyte activation assay, read-out: Gametocytes mean Pf FGAA IC50

CC(C)(C)CNCC(C)(C)c1nc(-c2ccc(Cl)c(O)c2)c(-c2ccncc2)[nH]1.Cl [TCMDC-140549]
IC50 [1]: 0.51 µM
Gametocytes mean ATP inhibition at 2µM (%) [2]: -11.46%
IC50 [3, 8]: 600 nM
Pf Asexual stages XC50 [3, 9]: 600 nM
HepG2 cells mean TOX50 [4]: 11.63 µM
reduction of asexual blood stages parasitaemia (threshold 40% vs vehicle) ([5]; 50 mg kg^−1 single dose 2-day oral treatment, mice): not reduced above the threshold
ED50 ([5]; single dose 2-day treatment, oral, P. berghei mice): > 50 mg/kg
permeability through artificial membranes [6]: 17 ×10⁻⁶ cm/s
IC50 [7, 10]: 3.56 µM
Pf FGAA classification [7]: GAMETE
IC50 [7, 11]: 1.01 µM

CN(C)CCOc1ccc(NC(=O)NC(C)(C)c2nc(-c3ccc(Cl)c(O)c3)c(-c3ccncc3)[nH]2)cc1.Cl [TCMDC-140744]
IC50 [1]: 10.6 µM
Gametocytes mean ATP inhibition at 2µM (%) [2]: -0.87%
IC50 [3, 8]: 110 nM
Pf Asexual stages XC50 [3, 9]: 110 nM
HepG2 cells mean TOX50 [4]: 14.30 µM
IC50 [7, 10]: 0.23 µM
Pf FGAA classification [7]: FAST
IC50 [7, 11]: 0.73 µM

CNCC(C)(C)c1nc(-c2ccc(Cl)c(O)c2)c(-c2ccncc2)[nH]1.Cl [TCMDC-140762]
IC50 [1]: 0.61 µM
Gametocytes mean ATP inhibition at 2µM (%) [2]: -1.34%
IC50 [3, 8]: 740 nM
Pf Asexual stages XC50 [3, 9]: 740 nM
HepG2 cells mean TOX50 [4]: 13.52 µM
IC50 [7, 10]: 1.06 µM
Pf FGAA classification [7]: GAMETE
IC50 [7, 11]: 0.88 µM

CC(C)(CNC(=O)[C@@H]1CCCCN1)c1nc(-c2ccc(Cl)c(O)c2)c(-c2ccncc2)[nH]1.Cl [TCMDC-141079]
IC50 [1]: 2.06 µM
Gametocytes mean ATP inhibition at 2µM [2]: -6.33%
IC50 [3, 12]: 840 nM
Pf Asexual stages XC50 [3, 9]: 840 nM
HepG2 cells mean TOX50 ([4]; HepG2 cells): 38.91 µM
IC50 [7, 10]: 2.48 µM
Pf FGAA classification [7]: GAMETE
IC50 [7, 13]: 1.58 µM

O=C(CCC1CCCC1)N(Cc1ccc(-c2ccc(CNCCc3ccccc3)cc2)cc1)C1CCCNC1.O=C(O)C(F)(F)F (stereo not shown) [TCMDC-141444]
IC50 [1]: 15.3 µM
Gametocytes mean ATP inhibition at 2µM [2]: 26.17%
IC50 [3, 12]: 1220 nM
Pf Asexual stages XC50 [3, 9]: 1220 nM
HepG2 cells mean TOX50 ([4]; HepG2 cells): 5.19 µM
IC50 [7, 10]: 6.85 µM
Pf FGAA classification [7]: SLOW
IC50 [7, 13]: 1.98 µM

CN1CCN(CCCNc2ncc3c(-c4ccc(NC(=O)Nc5cc(C(F)(F)F)ccc5F)c(F)c4)nn(C)c3n2)CC1.O=C(O)C(F)(F)F [TCMDC-141611]
IC50 [1]: 11.3 µM
Gametocytes mean ATP inhibition at 2µM [2]: -15.14%
IC50 [3, 12]: 860 nM
Pf Asexual stages XC50 [3, 9]: 860 nM
HepG2 cells mean TOX50 ([4]; HepG2 cells): 4.90 µM
IC50 [7, 10]: 11.1 µM
Pf FGAA classification [7]: SLOW
IC50 [7, 13]: 0.87 µM

CCOc1ccc2c(=NN=Cc3cc(OC)c(OC)cc3OC)cc(C)[nH]c2c1 [TCMDC-142207]
IC50 [1]: 6.42 µM
Gametocytes mean ATP inhibition at 2µM [2]: -8.55%
IC50 [3, 12]: 1000 nM
Pf Asexual stages XC50 [3, 9]: 170 nM
HepG2 cells mean TOX50 ([4]; HepG2 cells): 12.17 µM
IC50 [7, 10]: 4.97 µM
Pf FGAA classification [7]: SLOW
IC50 [7, 13]: 1.22 µM

CN(C)CCN1CCN(CCCN2c3ccccc3Sc3ccc(C(F)(F)F)cc32)CC1.Cl [TCMDC-142257]
IC50 [1]: > 20 µM
Gametocytes mean ATP inhibition at 2µM [2]: 23.41%
IC50 [3, 12]: 760 nM
Pf Asexual stages XC50 [3, 9]: 760 nM
HepG2 cells mean TOX50 ([4]; HepG2 cells): 77.62 µM
IC50 [7, 10]: 1.58 µM
Pf FGAA classification [7]: FAST
IC50 [7, 13]: 5.25 µM

From paper PMC5442318, “Hundreds of dual-stage antimalarial molecules discovered by a functional gametocyte screen” (Nature Communications, 2017)
